Test results reported in patent US8568997B2, “Detection system and uses therefor” (Dimerix Bioscience Pty Ltd., priority 2006, dated 2013).
“Also recorded” adds a separate entry of the source.

What was measured:
Assay type in all cases: cell-based
[1] = tested on: thyrotropin releasing hormone receptor (TRHR); test: eBRET/BRET beta-arrestin recruitment to TRHR/Rluc without IG3 (pcDNA3) in HEK293 cells
Protocol: eBRET measurements at 37 C were carried out on HEK293 cells transiently co-expressing TRHR/Rluc and barr2/Venus with either pcDNA3, orexin receptor 2 (OxR2), CXC chemokine receptor 2 (CXCR2), hemagglutin epitope-tagged melanocortin receptor 3 or 4 (HA-MC3R or HA-MC4R), or dopamine D2 receptor long form (D2LR) or short form (D2SR) following the treatment of each with their respective ligands.
Ligand treatments were either OxA or TRH only or both OxA and TRH combined. Phosphate-buffered saline (PBS) was used as a vehicle control.
Ligand treatments were either OxA or TRH only. Phosphate-buffered saline (PBS) was used as a vehicle control.
BRET measurements at 37 C were carried out on HEK293 cells transiently co-expressing TRHR/Rluc, barr2/Venus and pcDNA3 with increasing doses of TRH. Sigmoidal dose response curves were plotted using Prism (Graph Pad), either assuming a Hill slope of 1 or allowing for variable slope. The EC50 and Hill slope values for the variable slope curve are included in a table in the graph.
TRHR is IG1, Rluc is RC1, barr1 is IG2, EGFP is RC2 and OxR2 is IG3. The same amount of EGFP/barr1 (IG2-RC2) is transfected for each experiment.
Cells were seeded in 6-well plates at a density of approximately 630,000 cells/well (HEK293FT) or approximately 150,000 cells/well (COS-7) and maintained at 37° C., 5% CO2 in Complete Media (DMEM containing 0.3 mg/ml glutamine, 100 IU/ml penicillin and 100 μg/ml streptomycin (Gibco)) supplemented with 10% fetal calf serum (FCS; Gibco). Transient transfections were carried out 24 h after seeding using GeneJuice (Novagen) or Metafectene (Biontex) according to manufacturer instructions. 24 h post-transfection, cells were washed with PBS, detached using 0.05% trypsin/0.53 mM EDTA, resuspended in HEPES-buffered phenol red free Complete Media containing 5% FCS and added to a poly-L-lysine-coated white microplate (Nunc). 48 h post-transfection, eBRET assays were carried out following pre-incubation of cells with EnduRen™ (Promega) at a final concentration of 30-40 μM, at 37° C., 5% CO2 for 2 h. For original BRET studies, the HEPES-buffered phenol red free Complete Media was replaced with PBS and coelenterazine h (Molecular Probes) added to a final concentration of 5 μM immediately prior to commencing the assay. BRET measurements were taken at 37° C. using the Victor Light plate reader with Wallac 1420 software (Perkin-Elmer). Filtered light emissions were sequentially measured for 3-5 s in each of the ‘donor wavelength window’ (400-475 nm) and ‘acceptor wavelength window’ (>500 nm for EGFP or 520-540 nm for EYFP, Topaz (TYFP) or Venus). The BRET signal observed between interacting proteins is normalized by subtracting the background BRET ratio. This can be done in one of two ways (see Pfleger et al. (2006) Cell Signal 18, 1664-1670; Pfleger et al. (2006) Nat Protoc 1, 336-344): 1) the ratio of light emission through the ‘acceptor wavelength window’ over the 400-475 nm emission for a cell sample containing only the donor construct is subtracted from the same ratio for a sample containing the interacting acceptor and donor fusion proteins; 2) the ratio of light emission through the ‘acceptor wavelength window’ over the 400-475 nm emission for a cell sample treated with vehicle is subtracted from the same ratio for a second aliquot of the same cell sample treated with ligand. In the following examples, the first calculation will be used, unless the signal is described as the ligand-induced BRET ratio'.

[2] = tested on: TRHR335 (truncated TRHR) with OxR2; test: eBRET/BRET between TRHR335/Rluc and labelled beta-arrestin with OxR2 as IG3
Protocol: Cells were seeded in 6-well plates at a density of approximately 630,000 cells/well (HEK293FT) or approximately 150,000 cells/well (COS-7) and maintained at 37° C., 5% CO2 in Complete Media (DMEM containing 0.3 mg/ml glutamine, 100 IU/ml penicillin and 100 μg/ml streptomycin (Gibco)) supplemented with 10% fetal calf serum (FCS; Gibco). Transient transfections were carried out 24 h after seeding using GeneJuice (Novagen) or Metafectene (Biontex) according to manufacturer instructions. 24 h post-transfection, cells were washed with PBS, detached using 0.05% trypsin/0.53 mM EDTA, resuspended in HEPES-buffered phenol red free Complete Media containing 5% FCS and added to a poly-L-lysine-coated white microplate (Nunc). 48 h post-transfection, eBRET assays were carried out following pre-incubation of cells with EnduRen™ (Promega) at a final concentration of 30-40 μM, at 37° C., 5% CO2 for 2 h. For original BRET studies, the HEPES-buffered phenol red free Complete Media was replaced with PBS and coelenterazine h (Molecular Probes) added to a final concentration of 5 μM immediately prior to commencing the assay. […] Filtered light emissions were sequentially measured for 3-5 s in each of the ‘donor wavelength window’ (400-475 nm) and ‘acceptor wavelength window’ (>500 nm for EGFP or 520-540 nm for EYFP, Topaz (TYFP) or Venus). The BRET signal observed between interacting proteins is normalized by subtracting the background BRET ratio.

[3] = target: T1, OxR2 (Homo sapiens, UniProt O43614); test: BRET/eBRET beta-arrestin 2 recruitment to OxR2/Rluc (or Rluc8) without IG3 (pcDNA3); settings: OxR2/Rluc8 + barr2/Venus + pcDNA3
T1 construct: expressed in transfected cells; host or cells: HEK293
T1 sequence (O43614 1-444): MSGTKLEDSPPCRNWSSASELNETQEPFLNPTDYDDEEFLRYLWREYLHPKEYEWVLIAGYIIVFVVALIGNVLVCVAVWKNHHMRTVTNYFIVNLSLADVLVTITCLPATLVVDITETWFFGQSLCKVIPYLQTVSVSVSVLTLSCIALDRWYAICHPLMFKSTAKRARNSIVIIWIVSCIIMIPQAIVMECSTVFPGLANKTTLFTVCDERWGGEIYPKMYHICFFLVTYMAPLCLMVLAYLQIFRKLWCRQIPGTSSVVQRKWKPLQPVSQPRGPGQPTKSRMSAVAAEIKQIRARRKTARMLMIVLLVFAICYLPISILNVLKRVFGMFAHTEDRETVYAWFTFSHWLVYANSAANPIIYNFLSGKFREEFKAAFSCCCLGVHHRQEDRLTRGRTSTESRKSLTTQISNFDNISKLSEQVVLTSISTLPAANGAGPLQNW
Protocol: (§1) Phosphate-buffered saline (PBS) was used as a vehicle control.
(§2) Cells were seeded in 6-well plates at a density of approximately 630,000 cells/well (HEK293FT) or approximately 150,000 cells/well (COS-7) and maintained at 37° C., 5% CO2 in Complete Media (DMEM containing 0.3 mg/ml glutamine, 100 IU/ml penicillin and 100 μg/ml streptomycin (Gibco)) supplemented with 10% fetal calf serum (FCS; Gibco). Transient transfections were carried out 24 h after seeding using GeneJuice (Novagen) or Metafectene (Biontex) according to manufacturer instructions. 24 h post-transfection, cells were washed with PBS, detached using 0.05% trypsin/0.53 mM EDTA, resuspended in HEPES-buffered phenol red free Complete Media containing 5% FCS and added to a poly-L-lysine-coated white microplate (Nunc). 48 h post-transfection, eBRET assays were carried out following pre-incubation of cells with EnduRen™ (Promega) at a final concentration of 30-40 μM, at 37° C., 5% CO2 for 2 h. For original BRET studies, the HEPES-buffered phenol red free Complete Media was replaced with PBS and coelenterazine h (Molecular Probes) added to a final concentration of 5 μM immediately prior to commencing the assay. […] Filtered light emissions were sequentially measured for 3-5 s in each of the ‘donor wavelength window’ (400-475 nm) and ‘acceptor wavelength window’ (>500 nm for EGFP or 520-540 nm for EYFP, Topaz (TYFP) or Venus). […]

[4] = target: T2, OxR2 with HA-TRHR (Homo sapiens, UniProt O43614+P34981); test: eBRET between OxR2/Rluc8 and barr2/Venus with HA-TRHR as IG3
T2 construct: expressed in transfected cells; host or cells: HEK293
T2 sequence (O43614 1-444): T1 sequence (O43614 1-444)
T2 sequence (P34981 1-398): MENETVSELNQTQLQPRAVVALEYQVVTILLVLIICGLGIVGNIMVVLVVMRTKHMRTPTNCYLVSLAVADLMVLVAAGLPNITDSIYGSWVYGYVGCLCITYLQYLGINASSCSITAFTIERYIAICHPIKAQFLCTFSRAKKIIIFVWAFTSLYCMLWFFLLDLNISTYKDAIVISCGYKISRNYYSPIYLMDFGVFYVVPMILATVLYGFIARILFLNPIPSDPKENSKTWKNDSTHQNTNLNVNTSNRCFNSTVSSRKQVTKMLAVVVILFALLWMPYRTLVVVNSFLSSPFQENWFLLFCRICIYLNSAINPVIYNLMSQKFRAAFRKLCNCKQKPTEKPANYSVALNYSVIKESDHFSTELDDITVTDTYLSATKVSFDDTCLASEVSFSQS
Protocol: as §1, §2

[5] = target: bradykinin B2 receptor (B2R) with HA-AT1R (Homo sapiens, UniProt P30556); test: eBRET between B2R/Rluc8 and barr2/Venus with HA-AT1R as IG3
Protocol: Phosphate-buffered saline (PBS) was used as a vehicle control. Data presented as ligand-induced BRET ratio.
BRET measurements at 37 C were carried out on HEK293 cells transiently co-expressing B2R/Rluc8, barr2/Venus and HA-AT1R treated with increasing doses of Angiotensin II (AngII). A sigmoidal dose response curve was plotted using Prism (GraphPad) allowing for variable slope.
Cells were seeded in 6-well plates at a density of approximately 630,000 cells/well (HEK293FT) or approximately 150,000 cells/well (COS-7) and maintained at 37° C., 5% CO2 in Complete Media (DMEM containing 0.3 mg/ml glutamine, 100 IU/ml penicillin and 100 μg/ml streptomycin (Gibco)) supplemented with 10% fetal calf serum (FCS; Gibco). Transient transfections were carried out 24 h after seeding using GeneJuice (Novagen) or Metafectene (Biontex) according to manufacturer instructions. […] BRET measurements were taken at 37° C. using the Victor Light plate reader with Wallac 1420 software (Perkin-Elmer). Filtered light emissions were sequentially measured for 3-5 s in each of the ‘donor wavelength window’ (400-475 nm) and ‘acceptor wavelength window’ (>500 nm for EGFP or 520-540 nm for EYFP, Topaz (TYFP) or Venus). […]

Chain of bradykinin B2 receptor (B2R) with HA-AT1R (P30411 whole entry): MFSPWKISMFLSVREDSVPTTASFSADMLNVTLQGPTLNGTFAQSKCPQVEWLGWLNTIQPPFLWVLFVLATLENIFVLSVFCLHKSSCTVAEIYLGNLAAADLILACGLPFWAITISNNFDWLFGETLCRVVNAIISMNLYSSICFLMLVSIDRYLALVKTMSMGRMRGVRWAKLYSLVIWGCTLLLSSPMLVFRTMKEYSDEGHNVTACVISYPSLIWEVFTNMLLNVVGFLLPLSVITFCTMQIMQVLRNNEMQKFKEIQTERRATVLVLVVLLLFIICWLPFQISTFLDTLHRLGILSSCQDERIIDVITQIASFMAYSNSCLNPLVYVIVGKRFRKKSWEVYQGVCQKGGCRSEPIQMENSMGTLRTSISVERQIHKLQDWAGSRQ
Chain of bradykinin B2 receptor (B2R) with HA-AT1R (P30556 whole entry): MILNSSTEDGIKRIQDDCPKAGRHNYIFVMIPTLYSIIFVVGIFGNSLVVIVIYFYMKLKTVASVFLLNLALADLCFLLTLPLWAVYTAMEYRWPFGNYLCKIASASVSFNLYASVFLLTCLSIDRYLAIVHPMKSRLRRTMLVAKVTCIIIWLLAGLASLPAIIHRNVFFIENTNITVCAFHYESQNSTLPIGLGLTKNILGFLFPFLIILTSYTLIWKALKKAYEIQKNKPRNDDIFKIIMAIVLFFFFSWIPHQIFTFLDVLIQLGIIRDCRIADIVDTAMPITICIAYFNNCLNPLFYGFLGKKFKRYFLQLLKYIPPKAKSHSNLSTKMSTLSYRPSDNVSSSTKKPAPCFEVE

Molecule	time to eBRET signal peak ([1]; HEK293, TRHR/Rluc + barr2/Venus + pcDNA3, ligand 10^−6M)	eBRET signal peak ([1]; HEK293, TRHR/Rluc + barr2/Venus + pcDNA3, ligand 10^−6M, 37 C)	eBRET signal ([1]; TRHR/Rluc + EGFP/barr (barr1, barr2 or barr1R169E), no OxR2)	dose-response Hill slope ([1]; TRHR/Rluc + barr2/Venus + pcDNA3, FIG. 10)	eBRET signal ([2]; TRHR335/Rluc + EGFP/barr1 + OxR2)	BRET signal, dose response curves ([2]; TRHR335/Rluc + barr2/Venus + OxR2)	ligand-induced eBRET signal [3]	ligand-induced eBRET signal [4]	eBRET signal (ligand-induced BRET ratio) [5]
NC(=O)[C@@H]1CCCN1C(=O)[C@H](Cc1cnc[nH]1)NC(=O)[C@@H]1CCC(=O)N1 [TRH, pGlu-His-Pro-NH2]	Within the first minute	greater than 0.17	rapid stimulation of the eBRET signal; also recorded: rapid increase in eBRET signal	approximately 1	no eBRET signal above baseline	does not result in a BRET signal	No ligand-induced eBRET signal	0.05	
AngII									robust increase in the eBRET signal
